From US6610689B2, “HIV protease inhibitors based on amino acid derivatives” (priority 2001, dated 2003)
Where two headings read alike, the source gives them in different places.

Biological target: T1, HIV protease (Human immunodeficiency virus type 1 group M subtype B, UniProt P04585)
T1 construct: A third viral enzyme known as protease then cleaves the polyproteins
Assay: Enzymatic Assay for Determining the Inhibition Constant (Ki) of Synthetic Compounds Targeting the HIV Protease (fluorometric FRET assay)
Type: biochemical
Excerpt: Enzymatic Assay for Determining the Inhibition Constant (Ki) of Synthetic Compounds Targeting the HIV Protease
This is a fluorometric assay based on the cleavage by protease of a substrate carrying a donor group (EDANS) and an acceptor group (DABCYL) on each side of the cleavage site, interacting together through fluorescence resonance energy transfer (FRET) as described by Matayoshi et al. (Science 247:[…], 1990).
After calculation of Vo and Vi, the inhibition constant (Ki) of the compound is determined using the equation of Henderson: [formula]
where Vo=the enzyme's initial velocity
Vi=the enzyme velocity in the presence of the inhibitory compound,
[I]=inhlibitor concentration, [S]=substrate concentration,
Km=Michaelis-Menten constant and Kiapp=apparent Ki
Graphs are traced and the Ki determined using GraphPad Prism software v. 3.0.

[1] = Anti-protease activity of Ne-amino acid substituted L-lysine derivatives and analogs of formula I, read-out: Ki

With `Cc1ccc(S(=O)(=O)N(CC(C)C)[C@@H](CCCCNC(=O)[C@@H]2C[C@@H](O)CN2S(=O)(=O)c2ccccc2)C(=O)O)cc1` (relative stereo) [Example 17, Nα-Isobutyl-Nα-(4-methylbenzenesulfonyl)-Nε-[N′α-(benzenesulfonyl)-4-trans-hydroxy-L-prolyl]-L-lysine] the Ki (Anti-protease activity, read-out: Ki) was 55 nM.

In the case of `Cc1ccc(S(=O)(=O)N[C@@H](Cc2ccccc2)C(=O)NCCCC[C@@H](C(=O)O)N(CC(C)C)S(=O)(=O)c2ccc(C)cc2)cc1` [Example 1, Nα-Isobutyl-Nα-(4-methylbenzenesulfonyl)-Nε-[N′α-(4-methylbenzenesulfonyl)-L-phenylalanyl]-L-lysine], the Ki is reported as 1.1 nM.

With `Cc1ccc(S(=O)(=O)N[C@@H](Cc2c[nH]c3ccccc23)C(=O)NCCCC[C@@H](C(=O)O)N(CC(C)C)S(=O)(=O)c2ccc(C)cc2)cc1` [Example 2, Nα-Isobutyl-Nα-(4-methylbenzenesulfonyl)-Nε-[N′α-(4-methylbenzenesulfonyl)-L-tryptophanyl]-L-lysine] the Ki was 0.513 nM.

`CC(=O)Nc1ccc(S(=O)(=O)N[C@@H](Cc2ccccc2)C(=O)NCCCC[C@@H](C(=O)O)N(CC(C)C)S(=O)(=O)c2ccc(C)cc2)cc1` [Example 3, Nα-Isobutyl-Nα-(4-methylbenzenesulfonyl)-Nε-[N′α-(4-acetamidobenzenesulfonyl)-L-phenylalanyl]-L-lysine] showed a Ki of 0.977 nM.

`Cc1ccc(S(=O)(=O)N(CC(C)C)[C@@H](CCCCNC(=O)[C@H](Cc2c[nH]c3ccccc23)NS(=O)(=O)c2ccccc2)C(=O)O)cc1` [Example 4, Nα-Isobutyl-Nα-(4-methylbenzenesulfonyl)-Nε-(N′α-benzenesulfonyl-L-tryptophanyl)-L-lysine] gave a Ki of 1 nM.

In the case of `CC(C)CN([C@@H](CCCCNC(=O)[C@H](Cc1c[nH]c2ccccc12)NS(=O)(=O)c1ccc(N)cc1)C(=O)O)S(=O)(=O)c1ccc(N)cc1` [Example 5, Nα-Isobutyl-Nα-(4-aminobenzenesulfonyl)-Nε-[N′α-(4-aminobenzenesuifonyl)-L-tryptophanyl]-L-lysine], the Ki is reported as 0.459 nM.

`Cc1ccc(S(=O)(=O)N(CC(C)C)[C@@H](CCCCNC(=O)[C@H](Cc2c[nH]c3ccccc23)NS(=O)(=O)c2ccc([N+](=O)[O-])cc2)C(=O)O)cc1` [Example 6, Nα-Isobutyl-Nα-(4-methylbenzenesulfonyl)-Nε-[N′α-(4-nitrobenzenesulfonyl)-L-tryptophanyl]-L-lysine] gave a Ki of 7.3 nM.

With `Cc1ccc(S(=O)(=O)N[C@H](Cc2ccccc2)C(=O)NCCCC[C@@H](C(=O)O)N(CC(C)C)S(=O)(=O)c2ccc(C)cc2)cc1` [Example 7, Nα-Isobutyl-Nα-(4-methylbenzenesulfonyl)-Nε-[N′α-(4-methylbenzenesulfonyl)-D-phenylalanyl]-L-lysine] the Ki was 120 nM.

Work on `Cc1ccc(S(=O)(=O)N(CC(C)C)[C@@H](CCCCNC(=O)[C@H](Cc2ccccc2)NS(=O)(=O)c2ccccc2)C(=O)O)cc1` [Example 8, Nα-Isobutyl-Nα-(4-methylbenzenesulfonyl)-Nε-(N′α-benzenesulfonyl-L-phenylalanyl)-L-lysine] yielded a Ki of 1.9 nM.

Molecule `Cc1ccc(S(=O)(=O)N(CC(C)C)[C@@H](CCCCNC(=O)[C@H](Cc2ccccc2)NS(=O)(=O)c2ccc(Cl)cc2)C(=O)O)cc1` [Example 9, Nα-Isobutyl-Nα-(4-methylbenzenesulfonyl)-Nε-[N′α-(4-chlorobenzenesulfonyl)-L-phenylalanyl]-L-lysine] has a Ki of 6.8 nM.

Work on `Cc1ccc(S(=O)(=O)N(CC(C)C)[C@@H](CCCCNC(=O)[C@H](Cc2ccccc2)NS(=O)(=O)c2ccc([N+](=O)[O-])cc2)C(=O)O)cc1` [Example 10, Nα-Isobutyl-Nα-(4-methylbenzenesulfonyl)-Nε-[N′α-(4-nitrobenzenesulfonyl)-L-phenylalanyl]-L-lysine] yielded a Ki of 18 nM.

With `Cc1ccc(S(=O)(=O)N(CC(C)C)[C@@H](CCCCNC(=O)[C@H](Cc2c[nH]c3ccccc23)NS(=O)(=O)c2ccc(N)cc2)C(=O)O)cc1` [Example 12, Nα-Isobutyl-Nα-(4-methylbenzenesulfonyl)-Nε-[N′α-(4-aminobenzenesulfonyl)-L-tryptophanyl]-L-lysine] the Ki [1] was 0.311 nM.

`CCC[C@H](NS(=O)(=O)c1ccccc1)C(=O)NCCCC[C@@H](C(=O)O)N(CC(C)C)S(=O)(=O)c1ccc(C)cc1` [Example 14, Nα-Isobutyl-Nα-(4-methylbenzenesulfonyl)-Nε-[N′α-(benzenesulfonyl)-L-norvalyl]-L-lysine] gave a Ki of 185 nM.

`CCCC[C@H](NS(=O)(=O)c1ccccc1)C(=O)NCCCC[C@@H](C(=O)O)N(CC(C)C)S(=O)(=O)c1ccc(C)cc1` [Example 15, Nα-Isobutyl-Nα-(4-methylbenzenesulfonyl)-Nε-[N′α-(benzenesulfonyl)-L-norleucyl]-L-lysine] gave a Ki of 34 nM.

Work on `Cc1ccc(S(=O)(=O)N(CC(C)C)[C@@H](CCCCNC(=O)[C@H](CC(C)C)NS(=O)(=O)c2ccc([N+](=O)[O-])cc2)C(=O)O)cc1` [Example 16, Nα-Isobutyl-Nα-(4-methylbenzenesulfonyl)-Nε-[N′α-(4-nitrobenzenesulfonyl)-L-leucyl]-L-lysine] yielded a Ki of 34 nM.

Molecule `Cc1ccc(S(=O)(=O)N(CC(C)C)[C@@H](CCCCNC(=O)[C@H](Cc2ccccc2)NS(=O)(=O)c2ccc(F)cc2)C(=O)O)cc1` [Example 18, Nα-Isobutyl-Nα-(4-methylbenzenesulfonyl)-Nε-[N′α-(4-fluorobenzenesulfonyl)-L-phenylalanyl]-L-lysine] has a Ki of 8.3 nM.

For `Cc1ccc(S(=O)(=O)N(CC(C)C)[C@@H](CCCCNC(=O)[C@H](Cc2ccccc2)NS(=O)(=O)c2ccc3ccccc3c2)C(=O)O)cc1` [Example 19, Nα-Isobutyl-Nα-(4-methylbenzenesulfonyl)-Nε-[N′α-(2-naphthylsulfonyl)-L-phenylalanyl]-L-lysine], the Ki was 11 nM.

Molecule `Cc1ccc(S(=O)(=O)NCC(=O)NCCCC[C@@H](C(=O)O)N(CC(C)C)S(=O)(=O)c2ccc(C)cc2)cc1` [Example 21, Nα-Isobutyl-Nα-(4-methylbenzenesulfonyl)-Nε-[N′α-(4-methylbenzenesulfonyl)-glycyl]-L-lysine] has a Ki of 21 nM.

Work on `Cc1ccc(S(=O)(=O)N(CC(C)C)[C@@H](CCCCNC(=O)[C@H](CC(C)C)NS(=O)(=O)c2ccccc2)C(=O)O)cc1` [Example 22, Nα-Isobutyl-Nα-(4-methylbenzenesulfonyl)-Nε-(N′α-benzenesulfonyl-L-leucyl]-L-lysine] yielded a Ki of 29 nM.

`Cc1ccc(S(=O)(=O)N(CC(C)C)[C@@H](CCCCNC(=O)[C@H](Cc2ccccc2)NS(=O)(=O)c2ccc(C(F)(F)F)cc2)C(=O)O)cc1` [Example 23, Nα-Isobutyl-Nα-(4-methylbenzenesulfonyl)-Nε-[N′α-(4-trifluoromethylbenzenesulfonyl)-L-phenylalanyl]-L-lysine] showed a Ki of 12 nM.

`Cc1ccc(S(=O)(=O)N(CC(C)C)[C@@H](CCCCNC(=O)[C@H](Cc2ccccc2)NS(=O)(=O)c2cccs2)C(=O)O)cc1` [Example 24, Nα-Isobutyl-Nα-(4-methylbenzenesulfonyl)-Nε-[N′α-(2-thiophenesulfonyl)-L-phenylalanyl]-L-lysine] showed a Ki of 0.506 nM.

`Cc1ccc(S(=O)(=O)N(CC(C)C)[C@@H](CCCCNC(=O)[C@H](CC(N)=O)NS(=O)(=O)c2ccccc2)C(=O)O)cc1` [Example 25] gave a Ki of 5.3 nM.

`Cc1ccc(S(=O)(=O)N[C@@H](Cc2ccc([N+](=O)[O-])cc2)C(=O)NCCCC[C@@H](C(=O)O)N(CC(C)C)S(=O)(=O)c2ccc(C)cc2)cc1` [Example 26, Nα-Isobutyl-Nα-(4-methylbenzenesulfonyl)-Nε-[N′α-(4-methylbenzenesulfonyl)-L-4-nitrophenylalanyl]-L-lysine] gave a Ki [1] of 2.6 nM.

For `Cc1ccc(S(=O)(=O)N[C@H](C(=O)NCCCC[C@@H](C(=O)O)N(CC(C)C)S(=O)(=O)c2ccc(C)cc2)c2ccccc2)cc1` [Example 27, Nα-Isobutyl-Nα-(4-methylbenzenesulfonyl)-Nε-[N′α-(4-methylbenzenesulfonyl)-L-phenylglycyl]-L-lysine], the Ki was 11 nM.

Work on `CC(=O)Nc1ccc(S(=O)(=O)N[C@@H](Cc2ccccc2)C(=O)NCCCC[C@@H](C(=O)O)N(CC(C)C)S(=O)(=O)c2ccc([N+](=O)[O-])cc2)cc1` [Example 28, Nα-Isobutyl-Nα-(4-nitrobenzenesulfonyl)-Nε-[N′α-(4-acetamidobenzenesulfonyl)-L-phenylalanyl]-L-lysine] yielded a Ki of 9.3 nM.

Molecule `CC(C)CN([C@@H](CCCCNC(=O)[C@H](Cc1ccccc1)NS(=O)(=O)c1cccs1)C(=O)O)S(=O)(=O)c1ccc([N+](=O)[O-])cc1` [Example 29, Nα-Isobutyl-Nα-(4-nitrobenzenesulfonyl)-Nε-[N′α-(2-thiophenesulfonyl)-L-phenylalanyl]-L-lysine] has a Ki of 11 nM.

`CC(=O)N[C@@H](Cc1ccccc1)C(=O)NCCCC[C@@H](C(=O)O)N(CC(C)C)S(=O)(=O)c1ccc(C)cc1` [Example 30, Nα-Isobutyl-Nα-(4-methylbenzenesulfonyl)-Nε-(N′α-acetyl-L-phenylalanyl)-L-lysine] showed a Ki of 0.483 nM.

`Cc1ccc(S(=O)(=O)N(CC(C)C)[C@@H](CCCCNC(=O)[C@H](Cc2ccccc2)NC(=O)OCc2ccccc2)C(=O)O)cc1` [Example 31, Nα-Isobutyl-Nα-(4-methylbenzenesulfonyl)-Nε-(N′α-benzyloxycarbonyl-L-phenylalanyl)-L-lysine] gave a Ki of 2.3 nM.

With `Cc1ccc(S(=O)(=O)N[C@@H](CO)C(=O)NCCCC[C@@H](C(=O)O)N(CC(C)C)S(=O)(=O)c2ccc(C)cc2)cc1` [Example 32, Nα-Isobutyl-Nα-(4-methylbenzenesulfonyl)-Nε-[N′α-(4-methylbenzenesulfonyl)-L-seryl]-L-lysine] the Ki was 93 nM.
